ChEMBL document CHEMBL1124950, “Synthesis and cardiotonic activity of novel biimidazoles” (J Med Chem, 1990)
Activity calls are given as the source filed them. The rule behind the calls is not given here.

What was measured:
[1] = system: Rattus norvegicus; experiment: 25% increase in left ventricular contractility (dP/dtmax) on iv administration in anesthetized rat; not active; assay type: functional, organism-based; conditions: Heart left ventricle
[2] = system: Rattus norvegicus; experiment: 25% increase in left ventricular contractility (dP/dtmax) on iv administration in anesthetized rat; Not active at 3 mg/kg; assay type: functional, organism-based; parameters: dose 3 mg/kg; conditions: Heart left ventricle
[3] = system: Rattus norvegicus; experiment: 25% increase in left ventricular (dP/dtmax) after iv administration in anesthetized rat; Not active at 3 mg/kg; assay type: functional, organism-based; parameters: dose 3 mg/kg; conditions: Heart left ventricle
[4] = system: Canis familiaris; experiment: Peak percent change in contractile force produced after iv administration at 0.3 mg/kg in ansthetetized dog; assay type: functional, Canis lupus familiaris
[5] = target: T1, Phosphodiesterase 4 (Homo sapiens, UniProt P27815+Q08499+Q07343+Q08493); experiment: (§1) Inhibition of canine kidney Phosphodiesterase 4; assay type: protein assay; conditions: Canis lupus familiaris; target entry is the homologue from another species; concentration not given here
[6] = system: Canis familiaris; experiment: 25% increase in left ventricular contractility (dP/dtmax) on iv administration in anesthetized dog; assay type: functional; conditions: Canis lupus familiaris, Heart left ventricle
[7] = system: Canis familiaris; experiment: Peak percent change in contractile force produced by the administration of 1 mg/kg intravenously in anesthetized dog; assay type: functional, Canis lupus familiaris; conditions: route intravenous
[8] = system: Canis familiaris; experiment: Peak percent change in contractile force produced by the administration of 1 mg/kg intravenously in anesthetized dog; Not active; conditions: Canis lupus familiaris
[9] = system: Canis familiaris; experiment: 25% increase in left ventricular contractility (dP/dtmax) in anesthetized dog on iv administration; assay type: functional; conditions: Canis lupus familiaris, Heart left ventricle
[10] = system: Canis familiaris; experiment: 25% increase in left ventricular contractility (dP/dtmax) after iv administration in anesthetized dog; Not active; assay type: functional; conditions: Canis lupus familiaris, Heart left ventricle
[11] = system: Rattus norvegicus; experiment: 25% increase in left ventricular contractility (dP/dtmax) on iv administration in anesthetized rat; Not active; assay type: functional, organism-based; conditions: Heart left ventricle
[12] = system: Canis familiaris; experiment: Inotropic effect in anesthetized dog; assay type: functional; conditions: Canis lupus familiaris
[13] = system: Rattus norvegicus; experiment: 25% increase in left ventricular contractility (dP/dtmax) on iv administration in anesthetized rat; assay type: functional; conditions: Heart left ventricle
[14] = system: Canis familiaris; experiment: Peak percent change in contractile force produced by the administration of 1 mg/kg intravenously in anesthetized dog; not active; assay type: functional, organism-based; parameters: dose 1 mg/kg; conditions: Canis lupus familiaris; at 1 mg/kg
[15] = system: Rattus norvegicus; experiment: 25% increase in left ventricular contractility (dP/dtmax) after iv administration in anesthetized rat; assay type: functional; conditions: Heart left ventricle
[16] = system: Canis familiaris; experiment: Peak percent change in contractile force produced by 1 mg/kg administered intravenously in anesthetized dog; assay type: functional, Canis lupus familiaris; conditions: route intravenous
[17] = system: Canis familiaris; experiment: Increased heart rate in conscious dogs on oral administration at 10 mg/kg; assay type: functional, Canis lupus familiaris
[18] = target: T1, Phosphodiesterase 4; experiment: Inhibition of canine heart Phosphodiesterase 4; assay type: protein assay, Canis lupus familiaris; conditions: target entry is the homologue from another species
[19] = target: T1, Phosphodiesterase 4; experiment: as §1; assay type: protein assay, Canis lupus familiaris; conditions: target entry is the homologue from another species
[20] = system: Canis familiaris; experiment: Inotropic activity in anesthetized dog; assay type: functional; conditions: Canis lupus familiaris
[21] = system: Canis familiaris; experiment: Peak percent change in contractile force produced after iv administration at 1 mg/kg in anesthetized dog
[22] = system: Rattus norvegicus; experiment: Peak percent change in contractile force produced by the administration of 1 mg/kg intravenously in ansthetetized rat; assay type: functional; conditions: route intravenous
[23] = system: Canis lupus familiaris; experiment: 25% increase in left ventricular contractility (dP/dtmax) after iv administration in anesthetized dog; conditions: Heart left ventricle
[24] = target: T1, Phosphodiesterase 4; experiment: Inhibition of canine kidney Phosphodiesterase 4 at 150 uM; conditions: Canis lupus familiaris, target entry is the homologue from another species
[25] = system: Canis familiaris; experiment: Peak percent change in contractile force produced after iv administration at 0.3 mg/kg in anesthetized dog; assay type: functional, Canis lupus familiaris

With `NCc1c[nH]c(-c2ncc[nH]2)n1` the ED25 [1] was “inactive”.

In the case of `C[Si](C)(C)CCOCn1ccnc1-c1nccn1COCC[Si](C)(C)C`, the ED25 [2] is reported as “inactive”.

With `Cc1c[nH]c(-c2ncc[nH]2)n1` the ED25 [1] was “inactive”.

`N#Cc1c[nH]c(-c2ccco2)n1` was tested, and the ED25 [1] was “inactive”.

`FC(F)(F)c1c[nH]c(-c2nc(Br)c[nH]2)n1` was tested, and the ED25 [3] was “inactive”.

Work on `Nc1cc(-c2ccncc2)c[nH]c1=O` [INAMRINONE] yielded a Change [4] of 19% and an inhibition [5] of 24%.

In the case of `N#Cc1c[nH]c(-c2nc(-c3ccccc3)c[nH]2)n1`, the ED25 [6] is reported as 0.89 mg/kg.

`C[S+]([O-])c1c[nH]c(-c2ncc[nH]2)n1` (configuration not stated) showed a Change [7] of 1%.

In the case of `CN(C)Cc1ccc(-c2nc(C#N)c[nH]2)o1`, the Change [8] is reported as “inactive”.

In the case of `N#Cc1c[nH]c(-c2nc(C(F)(F)F)c[nH]2)n1`, the ED25 [9] is reported as 0.33 mg/kg.

In the case of `Cc1c[nH]c(-c2nc(C#N)c[nH]2)n1`, the ED25 [10] is reported as 0.63 mg/kg.

`CSc1c[nH]c(-c2ncc[nH]2)n1` was tested, and the Change [7] was 4%.

`OCc1c[nH]c(-c2ncc[nH]2)n1` showed a Change [7] of 0%.

For `N#Cc1c[nH]c(-c2ccc(-c3nc(C#N)c[nH]3)cc2)n1`, the Change [7] was 8%.

`COc1ccc(-c2c[nH]c(-c3nc(C#N)c[nH]3)n2)cc1` showed a Change [7] of 106% and an ED25 [9] of 0.36 mg/kg.

`N#Cc1c[nH]c(-c2nc(C#N)c[nH]2)n1` showed an ED25 [9] of 0.18 mg/kg.

Work on `N#Cc1[nH]cnc1-c1ncc[nH]1` yielded a Change [7] of 0%.

With `N#Cc1c[nH]c(-c2nccn2Cc2ccccc2)n1` the Change [7] was 2%.

`N#Cc1c[nH]c(-c2ccc(Br)s2)n1` was tested, and the ED25 [1] was “inactive”.

`FC(F)(F)c1c[nH]c(-c2ncc[nH]2)n1` was tested, and the ED25 [11] was “inactive”.

`N#Cc1c[nH]c(-c2nc(-c3ccc(C(F)(F)F)cc3)c[nH]2)n1` showed an ED25 [9] of 0.26 mg/kg.

`Brc1c[nH]c(-c2nc(Br)c[nH]2)n1` was tested, and the ED25 [3] was “inactive”.

For `Cc1[nH]c(=O)c(C#N)cc1-c1ccncc1` [MILRINONE], the Change [7] was 52%, the ED25 [12] was 0.06 mg/kg and the Change [4] was 110%. The ED25 [13] was 0.3 mg/kg.

With `O=Cc1c[nH]c(-c2nc(C=O)c[nH]2)n1` the ED25 [3] was “inactive”.

For `Cn1cc(C#N)nc1-c1ncc[nH]1`, the ED25 [9] was 0.17 mg/kg.

With `N#Cc1c[nH]c(-c2cn[nH]c2)n1` the Change [14] was “inactive” and the ED25 [1] was “inactive”.

In the case of `Cn1c(Cl)cnc1-c1nc(C#N)c[nH]1`, the Change [7] is reported as 11%.

Compound `Cn1ccnc1-c1nc(C#N)c[nH]1` has a Change [7] of 29%.

`COC(=O)c1c[nH]c(-c2ncc[nH]2)n1` was tested, and the ED25 [1] was “inactive”.

`Brc1c[nH]c(-c2ncc[nH]2)n1` showed an ED25 [15] of 5.5 mg/kg.

`N#Cc1c[nH]c(-c2nccn2-c2ccccc2)n1` gave a Change [7] of 0%.

For `CCn1ccnc1-c1nc(C#N)c[nH]1`, the Change [7] was 41%.

For `N#Cc1c[nH]c(-c2csc(NC(=N)N)n2)n1`, the Change [8] was “inactive”.

`c1c[nH]c(-c2ncc[nH]2)n1` showed an ED25 [13] of 0.24 mg/kg.

In the case of `N#Cc1c[nH]c(-c2nc(Br)c(Br)[nH]2)n1`, the Change [16] is reported as 96%.

`C=Cn1ccnc1-c1nc(C#N)c[nH]1` was tested, and the Change [7] was 41%.

`N#Cc1c[nH]c(-c2ncc[nH]2)n1` was tested, and the “Increase in heart rate” value [17] was 45 beats min-1, the IC50 [18] was 36.7 µM and the IC50 [19] was 339 µM. The ED25 [20] was 0.16 mg/kg and the Change [21] was 60%.

`O=Cc1c[nH]c(-c2ncc[nH]2)n1` was tested, and the ED25 [3] was “inactive”.

`c1c[nH]c(-c2nc(-c3nn[nH]n3)c[nH]2)n1` was tested, and the Change [7] was 0% and the ED25 [1] was “inactive”.

Compound `N#Cc1c[nH]c(-c2ccc(-n3ccnc3)cc2)n1` has a Change [7] of 17%.

For `N#Cc1c[nH]c(-c2cccs2)n1`, the ED25 [1] was “inactive”.

`Cn1ccnc1-c1ncc(C#N)n1C` gave a Change [22] of 13%.

In the case of `N#Cc1c[nH]c(-c2cccnc2)n1`, the Change [7] is reported as 31% and the ED25 [1] is reported as “inactive”.

With `N#Cc1c[nH]c(-c2nc(Cl)c[nH]2)n1` the Change [16] was 95%.

Compound `Clc1c[nH]c(-c2nc(Cl)c[nH]2)n1` has an ED25 [15] of 0.7 mg/kg.

For `NC(=O)c1c[nH]c(-c2ncc[nH]2)n1`, the ED25 [1] was “inactive”.

Work on `FC(F)(F)c1c[nH]c(-c2c[nH]cn2)n1` yielded a Change [7] of 0%.

Work on `Cn1c(C#N)cnc1-c1ncc[nH]1` yielded a Change [7] of 3%.

In the case of `Cc1ccsc1-c1nc(C#N)c[nH]1`, the ED25 [1] is reported as “inactive”.

`Clc1c[nH]c(-c2ncc[nH]2)n1` was tested, and the ED25 [3] was “inactive”.

In the case of `N#Cc1c[nH]c(-c2nc(Br)c[nH]2)n1`, the ED25 [23] is reported as 0.2 mg/kg.

`N#Cc1c[nH]c(-c2c[nH]cn2)n1` gave a Change [7] of 25%.

`N#Cc1c[nH]c(-c2cc[nH]n2)n1` was tested, and the Change [7] was -4% and the ED25 [1] was “inactive”.

In the case of `CSc1ccc(C(=O)c2[nH]c(=O)[nH]c2C)cc1` [ENOXIMONE], the Change [7] is reported as 73%, the ED25 [12] is reported as 0.46 mg/kg and the ED25 [13] is reported as 1.4 mg/kg. For the same compound, the inhibition [24] was 34%.

With `O=C(O)c1c[nH]c(-c2ncc[nH]2)n1` the ED25 [1] was “inactive”.

For `C[C@@H]1C(=O)NC2=Nc3cccc(Cl)c3CN21` [QUAZINONE], the Change [25] was 47%.
